Laboratory results taken from ChEMBL document CHEMBL3217750, “Small-molecule inhibitors of dimeric transcription factors: Antagonism of proteinprotein and proteinDNA interactions” (Medchemcomm, 2012).
One block for each compound: values may come before it. Bridge positions count the residues as written; N and C are the ends. Peptide text beside a SMILES is read from it.

Columns and labels:
Transcription factor AP1 = Transcription factor AP1 (Homo sapiens, UniProt P01100+P05412); assay: Inhibition of c-FOS/AP1 (unknown origin); assay type: protein-complex assay
Chain of Transcription factor AP1 (P05412 whole entry): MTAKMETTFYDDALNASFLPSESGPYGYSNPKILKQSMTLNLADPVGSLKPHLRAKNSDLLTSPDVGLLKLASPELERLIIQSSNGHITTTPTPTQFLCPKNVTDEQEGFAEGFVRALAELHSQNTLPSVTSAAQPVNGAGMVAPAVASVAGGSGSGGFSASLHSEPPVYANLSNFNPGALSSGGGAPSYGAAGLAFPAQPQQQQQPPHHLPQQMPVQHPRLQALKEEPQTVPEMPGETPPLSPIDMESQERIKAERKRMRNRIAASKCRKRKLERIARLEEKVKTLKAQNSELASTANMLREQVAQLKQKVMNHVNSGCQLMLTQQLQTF
Chain of Transcription factor AP1 (P01100 whole entry): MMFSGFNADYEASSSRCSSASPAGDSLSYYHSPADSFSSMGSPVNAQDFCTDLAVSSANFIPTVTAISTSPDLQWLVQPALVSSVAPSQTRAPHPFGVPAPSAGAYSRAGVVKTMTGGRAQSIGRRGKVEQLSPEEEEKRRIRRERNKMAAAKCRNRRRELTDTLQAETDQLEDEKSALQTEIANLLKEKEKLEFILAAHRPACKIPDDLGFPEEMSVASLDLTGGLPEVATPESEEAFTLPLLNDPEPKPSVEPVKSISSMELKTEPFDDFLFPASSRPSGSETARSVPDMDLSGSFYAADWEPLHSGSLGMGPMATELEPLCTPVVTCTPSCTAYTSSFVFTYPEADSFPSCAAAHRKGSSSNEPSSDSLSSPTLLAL

[1] = target: T1, Lymphoid enhancer-binding factor 1 (Homo sapiens, UniProt Q9UJU2); assay: Inhibition of LEF-1-mediated gene transcription in HEK293 cells after 48 hrs by luciferase reporter gene assay; assay type: cell-based
T1 sequence (Q9UJU2 whole entry): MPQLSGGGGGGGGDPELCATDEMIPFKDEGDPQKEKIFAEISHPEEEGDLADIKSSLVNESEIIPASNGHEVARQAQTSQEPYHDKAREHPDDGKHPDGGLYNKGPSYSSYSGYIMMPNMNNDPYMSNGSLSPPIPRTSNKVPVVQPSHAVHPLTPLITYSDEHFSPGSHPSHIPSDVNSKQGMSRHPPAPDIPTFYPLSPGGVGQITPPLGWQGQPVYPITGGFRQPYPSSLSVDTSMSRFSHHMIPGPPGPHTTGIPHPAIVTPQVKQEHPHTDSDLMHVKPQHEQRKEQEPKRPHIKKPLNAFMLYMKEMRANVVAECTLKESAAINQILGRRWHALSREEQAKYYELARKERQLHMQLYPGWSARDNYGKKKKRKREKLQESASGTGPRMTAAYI

[2] = target: T1, Lymphoid enhancer-binding factor 1; assay: Inhibition of LEF-1 (unknown origin) expressed in CEF assessed as inhibition of beta catenin interaction by electrophoretic mobility shift assay
c-Myc/Max [3] = target: T2, c-Myc/Max (Homo sapiens, UniProt P01106+P61244); assay: Inhibition of c-Myc/Max (unknown origin) DNA-binding activity; assay type: protein-complex assay
T2 sequence (P01106 whole entry): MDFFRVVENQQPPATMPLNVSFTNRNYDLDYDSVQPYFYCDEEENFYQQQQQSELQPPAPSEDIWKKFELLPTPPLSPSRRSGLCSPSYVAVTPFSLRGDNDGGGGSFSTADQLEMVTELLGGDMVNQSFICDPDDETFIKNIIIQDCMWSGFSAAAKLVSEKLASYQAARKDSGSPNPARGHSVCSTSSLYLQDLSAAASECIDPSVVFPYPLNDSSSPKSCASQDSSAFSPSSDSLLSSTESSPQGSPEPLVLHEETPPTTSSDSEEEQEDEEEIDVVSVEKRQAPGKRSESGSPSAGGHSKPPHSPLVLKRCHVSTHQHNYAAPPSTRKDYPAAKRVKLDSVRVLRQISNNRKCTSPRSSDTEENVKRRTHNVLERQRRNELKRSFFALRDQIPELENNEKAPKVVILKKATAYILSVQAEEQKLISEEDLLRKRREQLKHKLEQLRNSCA
T2 sequence (P61244 whole entry): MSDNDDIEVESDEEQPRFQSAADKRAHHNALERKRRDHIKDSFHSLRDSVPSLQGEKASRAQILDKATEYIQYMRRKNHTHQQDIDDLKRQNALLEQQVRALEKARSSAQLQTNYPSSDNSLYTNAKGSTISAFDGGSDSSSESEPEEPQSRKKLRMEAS

Protein max = Protein max (Homo sapiens, UniProt P61244); assay: Inhibition of dimerized Max (unknown origin) DNA-binding activity
Chain of Protein max (P61244 whole entry): as above

Transcription factor Jun = Transcription factor Jun (Homo sapiens, UniProt P05412); assay: Inhibition of AP-1 complex (unknown origin)
Chain of Transcription factor Jun (P05412 whole entry): as the sequence (P05412 whole entry) above

Homo sapiens [4] = organism: Homo sapiens; assay: Ratio of curcumin IC50 to compound IC50 for AP-1 complex (unknown origin)
c-Myc/Max [5] = target: T2, c-Myc/Max; assay: Inhibition of c-Myc/Max (unknown origin); assay type: protein-complex assay
Homo sapiens [6] = organism: Homo sapiens; assay: Selectivity ratio of IC50 for c-Myc/Max (unknown origin) to IC50 for AP-1 complex (unknown origin)
HL-60 = assay: Antiproliferative activity against human HL60 cells; assay type: functional, cell-based
[7] = target: T3, Myc proto-oncogene protein (Homo sapiens, UniProt P01106); assay: Binding affinity to c-MYC (353 to 437) (unknown origin) by fluorescence polarization assay
T3 sequence (P01106 whole entry): as the sequence (P01106 whole entry) above

Homo sapiens [8] = organism: Homo sapiens; assay: Selectivity ratio of IC50 for dimerized Max (unknown origin) to IC50 for c-Myc/Max (unknown origin)
c-Myc/Max [9] = target: T2, c-Myc/Max; assay: Inhibition of c-Myc/Max (unknown origin) DNA-binding activity preincubated for 1 hr followed by DNA addition measured after 15 mins by electrophoretic mobility shift assay; assay type: protein-complex assay
[10] = target: T3, Myc proto-oncogene protein; assay: Inhibition of c-MYC in human HL60 cells by chemiluminescence assay; assay type: cell-based, HL-60

IC50 (Transcription factor AP1): 8 µM
Structure (SMILES): CC(=O)N[C@H]1CSSC[C@@H](C(N)=O)NC(=O)CNC(=O)[C@H](CC(=O)O)NC(=O)[C@H](C)NC(=O)[C@H](CC(C)C)NC(=O)[C@H](CC(=O)O)NC(=O)[C@H](CC(C)C)NC(=O)[C@H](CCC(N)=O)NC(=O)CNC1=O (Ac-CGQLDLADGC-NH2; disulfide 1-10)

IC50 [1]: 0.15 µM | IC50 [2]: 115 µM
Structure (SMILES): COC(=O)c1cnc2ccc(NC(=O)c3ccc4c(c3)c3cc(NC(=O)c5cc6cc(NC(=O)CCCN(C)C)ccc6o5)ccc3n4C)cc2c1

IC50 [1]: 6.2 µM | IC50 [2]: 31 µM
Structure (SMILES): COC(=O)c1cc2cc(NC(=O)c3cc4cc(NC(=O)c5cc(NC(=O)OC(C)(C)C)cs5)ccc4[nH]3)ccc2[nH]1

IC50 (Transcription factor AP1): 200 µM
Structure (SMILES): O=C(O)CCc1cc(C(=O)c2ccc(OC3CCCC3)cc2O)ccc1OCc1ccc2c(O)noc2c1

IC50 (c-Myc/Max [3]): 30 µM | IC50 (Protein max): 72 µM
Structure (SMILES): COc1ccc(CNC(=O)c2cc3nc(-c4cccs4)cc(C(F)(F)F)n3n2)cc1

IC50 (Transcription factor Jun): 5.4 µM | Ratio IC50 (Homo sapiens [4]): 90
Structure (SMILES): COc1cc(/C=C/C(=O)/C=C(O)/C=C/c2cc(OC)c(O)c([N+](=O)[O-])c2)cc([N+](=O)[O-])c1O

IC50 (Transcription factor Jun): 30 µM | IC50 (c-Myc/Max [5]): 4000 µM | Ratio IC50 (Homo sapiens [6]): > 100
Structure (SMILES): CC1(C)CC[C@]2(C(=O)O)CC[C@]3(C)C(=CC[C@@H]4[C@@]5(C)CC[C@H](O[C@@H]6O[C@H](C(=O)O)[C@@H](O)[C@H](O[C@@H]7OC[C@H](O)[C@H](O)[C@H]7O)[C@H]6O)C(C)(C)[C@@H]5CC[C@]43C)[C@@H]2C1

IC50 (HL-60): 49 µM | Activity [7]: 5.3 µM
Structure (SMILES): CCc1ccc(/C=C2\SC(=S)NC2=O)cc1

Activity [7]: 2.8 µM
Structure (SMILES): O=[N+]([O-])c1ccc(Nc2ccccc2-c2ccccc2)c2nonc12

IC50 (c-Myc/Max [3]): 40 µM | IC50 (Protein max): 88 µM | Ratio IC50 (Homo sapiens [8]): > 2
Structure (SMILES): CCOC(=O)c1cnn(-c2ccccc2)c1NC(=O)c1cc2nc(-c3ccco3)cc(C(F)(F)Cl)n2n1

IC50 (c-Myc/Max [9]): 50 µM
Structure (SMILES): CNC(=O)c1cc2c(cc1C(=O)NC[C@H](NS(=O)(=O)c1c(Cl)sc(Cl)c1Br)C(=O)OC(C)(C)C)CN(C(=O)CCC1CCN(C(=O)OC(C)(C)C)CC1)C2

IC50 [10]: 29 µM
Structure (SMILES): CC(C)c1ccc(/C=C2\SC(=S)N(CN3CCCCC3)C2=O)cc1
